In US20220089710A1, “Method of Treating Signs and Symptoms of Osteoarthritis” (Pfizer Inc., priority 2019, published 2022):
Read-outs that look alike come from different tables or passages of the source.

Columns and labels:
[1] = system: patients with moderate to severe OA of the hip or knee; experiment: Example 1: safety assessments (adverse events, neurological assessments); assay type: in vivo, human; conditions: SC 2.5 mg and 2.5/5 mg regimens
Description: Safety assessments included: adverse event (AE) reporting; laboratory testing; 12-lead electrocardiogram; sitting vital signs; orthostatic blood pressure assessments; physical examinations; musculoskeletal examinations; neurological examinations reported using the Neuropathy Impairment Score (Dyck et al., Neurology. 1995; 45(6):1115-1121); Survey of Autonomic Symptoms scores (Zilliox et al., Neurology. 2011; 76(12):1099-1105); adjudication of joint safety events including total joint replacements (TJRs); and anti-drug antibody assessments. AEs were coded using MedDRA v21.0. AE severity and relationship to study treatment were assessed by the investigator.
Patients meeting protocol-specified criteria were further evaluated for peripheral neuropathy and/or sympathetic autonomic neuropathy. Neurological examinations were conducted at all clinic visits by investigators or designated physicians who received protocol-required training, and findings were recorded using the Neuropathy Impairment Score (Dyck et al).

[2] = system: patients with osteoarthritis (OA) of the knee or hip; conditions: for PGA-OA: LS Mean (SE) change from Baseline / PGA-OA: LS Mean Difference vs. NSAID (SE) / WOMAC Pain ≥30% reduction: % of patients / WOMAC Pain ≥30% reduction: number of patients / WOMAC Pain ≥70% reduction: % of patients / WOMAC Pain ≥70% reduction: number of patients / WOMAC Pain ≥90% reduction: % of patients / WOMAC Pain ≥90% reduction: number of patients / WOMAC Pain: LS Mean Difference vs. NSAID (SE) / WOMAC Physical Function: LS Mean (SE) change from Baseline / WOMAC Physical Function: LS Mean Difference vs. NSAID (SE) / WOMAC Pain: LS Mean (SE) change from Baseline / WOMAC Pain ≥50% reduction: % of patients / WOMAC Pain ≥50% reduction: number of patients: Week 16; for PGA-OA: LS Mean Difference vs. NSAID / PGA-OA: LS Mean change from Baseline / WOMAC Pain: LS Mean Difference vs. NSAID / WOMAC Pain: LS Mean change from Baseline / WOMAC Physical Function: LS Mean Difference vs. NSAID / WOMAC Physical Function: LS Mean change from Baseline: Week 56;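 as to all read-outs here: SC doses every 8 weeks plus twice-daily oral study drug to Week 56, efficacy assessed in all randomized patients given at least one SC dose, by assigned arm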
Procedure: Patients received a total of seven SC injections, each separated by 8 weeks and daily oral (PO) study medication BID through Week 56.
The Intent-to-Treat (ITT) Population included all patients who were randomized and received at least one dose of SC study drug. This analysis set was primary for all efficacy endpoints, which were analyzed according to randomization assignment. The Safety Population included all patients who received at least one dose of SC study treatment. This analysis set was primary for all safety endpoints, which were analyzed according to treatment received.

[3] = system: patients with OA of the knee or hip; experiment: Example 2: safety, including adjudication of joint safety events; assay type: in vivo, human
Description: (§1) Key inclusion criteria were Western Ontario and McMaster Universities Osteoarthritis Index (WOMAC) Pain and Physical Function scores in the index joint; a Patient Global Assessment of OA (PGA-OA) score of fair, poor, or very poor; a history of insufficient pain relief or intolerance to acetaminophen, oral NSAID, and either tramadol or opioids (or unwilling to take opioids). […] Co-primary endpoints were change from baseline in WOMAC Pain, WOMAC Physical Function, and PGA-OA scores at week 24 compared with placebo. Three key secondary endpoints were: reduction in the WOMAC Pain subscale of 50%, at Week 24, WOMAC Pain subscale change from Baseline to Week 2, and weekly average pain score (based on daily diary) in the index joint change from Baseline to Week 1. Safety, including adjudication of joint safety events, was assessed.

[4] = system: patients with moderate to severe OA of the hip or knee; experiment: Example 1: adjudicated joint safety events (RPOA, TJR); assay type: in vivo, human
Procedure: Investigators performed musculoskeletal examinations at each study visit. Investigators evaluated patients reporting increased severe or persistent pain via eDiary lasting […] to determine if additional follow-up was needed. Post-baseline x-rays (scheduled or for cause) were assessed by the central reader for possible or probable RPOA, subchondral insufficiency fracture, primary osteonecrosis, or pathologic fracture. If warranted, magnetic resonance imaging scans were performed and/or patients were referred to an orthopedic surgeon. All cases of possible or probable joint safety events or cases of TJR for any reason were adjudicated by a blinded Adjudication Committee consisting of orthopedic surgery, rheumatology, orthopedic pathology, and musculoskeletal radiology experts.

[5] = system: patients with OA of the knee or hip; experiment: Example 2: randomized, double-blind, placebo-controlled study (24-week treatment; SC tanezumab at baseline, week 8, week 16), efficacy; assay type: in vivo, human; conditions: for WOMAC Pain subscale Change from Baseline: LS Mean / WOMAC Pain subscale Change from Baseline: LS Mean Difference vs. placebo: Week 2; for PGA-OA: LS Mean (SE) change from Baseline / PGA-OA: LS Mean Difference vs. placebo (SE) / WOMAC Pain: LS Mean Difference vs. placebo (SE) / WOMAC Physical Function: LS Mean (SE) change from Baseline / WOMAC Physical Function: LS Mean Difference vs. placebo (SE) / WOMAC Pain: LS Mean (SE) change from Baseline / % of subjects with ≥50% reduction in the WOMAC Pain subscale / Number of subjects with ≥50% reduction in the WOMAC Pain subscale / WOMAC Pain: LS mean difference±SE versus placebo: Week 24; for WOMAC Pain: LS Mean (SE) change from Baseline: ITT, multiple imputation; for % of subjects with ≥50% reduction in the WOMAC Pain subscale / Number of subjects with ≥50% reduction in the WOMAC Pain subscale: mixed BOCF and LOCF
Description: as §1

NGF [6] = target: T1, NGF (Homo sapiens, UniProt P01138); conditions: cell culture models; cited from earlier work
T1 sequence (P01138 122-241): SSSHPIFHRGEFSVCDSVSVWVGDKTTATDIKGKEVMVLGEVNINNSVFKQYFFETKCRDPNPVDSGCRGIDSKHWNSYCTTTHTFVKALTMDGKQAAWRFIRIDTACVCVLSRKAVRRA

NGF [7] = target: T1, NGF; conditions: cited from earlier work
[8] = both tanezumab regimens pooled (n=464)

tanezumab: humanized immunoglobulin G Type 2 (IgG2) monoclonal antibody directed against human nerve growth factor (NGF); SEQ ID NOs: 9 or 11 and 10
overall safety and tolerability [1]: generally safe and well-tolerated
PGA-OA: LS Mean (SE) change from Baseline ([2]; 2.5 mg SC): −0.96 (0.04)
PGA-OA: LS Mean Difference vs. NSAID (SE) ([2]; 2.5 mg SC): −0.02 (0.04)
WOMAC Pain ≥30% reduction: % of patients ([2]; 2.5 mg SC): 71.8%
WOMAC Pain ≥30% reduction: number of patients ([2]; 2.5 mg SC): 718
WOMAC Pain ≥70% reduction: % of patients ([2]; 2.5 mg SC): 28.9%
WOMAC Pain ≥70% reduction: number of patients ([2]; 2.5 mg SC): 289
WOMAC Pain ≥90% reduction: % of patients ([2]; 2.5 mg SC): 10.3%
WOMAC Pain ≥90% reduction: number of patients ([2]; 2.5 mg SC): 103
WOMAC Pain: LS Mean Difference vs. NSAID (SE) ([2]; 2.5 mg SC): −0.15 (0.11)
WOMAC Physical Function: LS Mean (SE) change from Baseline ([2]; 2.5 mg SC): −3.27 (0.11)
WOMAC Physical Function: LS Mean Difference vs. NSAID (SE) ([2]; 2.5 mg SC): −0.19 (0.11)
WOMAC Pain: LS Mean (SE) change from Baseline ([2]; 2.5 mg SC, ITT, multiple imputation): −3.22 (0.11)
WOMAC Pain ≥50% reduction: % of patients ([2]; 2.5 mg SC, mixed BOCF/LOCF): 54.9%
WOMAC Pain ≥50% reduction: number of patients ([2]; 2.5 mg SC, mixed BOCF/LOCF): 549
PGA-OA: LS Mean Difference vs. NSAID ([2]; 2.5 mg SC): 0.01
PGA-OA: LS Mean change from Baseline ([2]; 2.5 mg SC): −0.65
WOMAC Pain: LS Mean Difference vs. NSAID ([2]; 2.5 mg SC): −0.02
WOMAC Pain: LS Mean change from Baseline ([2]; 2.5 mg SC): −2.44
WOMAC Physical Function: LS Mean Difference vs. NSAID ([2]; 2.5 mg SC): −0.05
WOMAC Physical Function: LS Mean change from Baseline ([2]; 2.5 mg SC): −2.45
PGA-OA: LS Mean (SE) change from Baseline ([2]; 5 mg SC): −0.97 (0.04)
PGA-OA: LS Mean Difference vs. NSAID (SE) ([2]; 5 mg SC): −0.04 (0.04)
WOMAC Pain ≥30% reduction: % of patients ([2]; 5 mg SC): 72.9%
WOMAC Pain ≥30% reduction: number of patients ([2]; 5 mg SC): 725
WOMAC Pain ≥50% reduction: % of patients ([2]; 5 mg SC): 56.5%
WOMAC Pain ≥50% reduction: number of patients ([2]; 5 mg SC): 562
WOMAC Pain ≥70% reduction: % of patients ([2]; 5 mg SC): 35.0%
WOMAC Pain ≥70% reduction: number of patients ([2]; 5 mg SC): 348
WOMAC Pain ≥90% reduction: % of patients ([2]; 5 mg SC): 12.7%
WOMAC Pain ≥90% reduction: number of patients ([2]; 5 mg SC): 126
WOMAC Pain: LS Mean (SE) change from Baseline ([2]; 5 mg SC): −3.33 (0.11)
WOMAC Pain: LS Mean Difference vs. NSAID (SE) ([2]; 5 mg SC): −0.26 (0.11)
WOMAC Physical Function: LS Mean (SE) change from Baseline ([2]; 5 mg SC): −3.39 (0.11)
WOMAC Physical Function: LS Mean Difference vs. NSAID (SE) ([2]; 5 mg SC): −0.31 (0.10)
PGA-OA: LS Mean Difference vs. NSAID ([2]; 5 mg SC): 0.06
PGA-OA: LS Mean change from Baseline ([2]; 5 mg SC): −0.60
WOMAC Pain: LS Mean Difference vs. NSAID ([2]; 5 mg SC): 0.05
WOMAC Pain: LS Mean change from Baseline ([2]; 5 mg SC): −2.37
WOMAC Physical Function: LS Mean Difference vs. NSAID ([2]; 5 mg SC): 0.05
WOMAC Physical Function: LS Mean change from Baseline ([2]; 5 mg SC): −2.36
Pre-specified composite joint safety endpoint events: % of patients ([3]; 2.5 mg SC): 1.8%
TJRs: % of patients ([3]; 2.5 mg SC): 7.8%
Treatment-emergent AEs: % of patients ([3]; 2.5 mg SC): 53%
incidence of serious AEs ([3]; 2.5 mg SC): 2.8%
Pre-specified composite joint safety endpoint events: % of patients ([3]; 5 mg SC): 3.2%
TJRs: % of patients ([3]; 5 mg SC): 7.0%
Treatment-emergent AEs: % of patients ([3]; 5 mg SC): 57%
incidence of serious AEs ([3]; 5 mg SC): 3.2%
events adjudicated as RPOA (types 1 and 2): % of group ([4]; 2.5 mg group): 2.2%
events adjudicated as RPOA (types 1 and 2): % of group ([4]; 2.5/5 mg group): 0.4%
adjudicated RPOA type 1 (accelerated joint space narrowing): n ([4]; both tanezumab regimens pooled): 4
adjudicated RPOA type 2 (damage or deterioration of the joint): n ([4]; both tanezumab regimens pooled): 2
tanezumab-treated patients with TJRs and adjudicated RPOA ([4]; both tanezumab regimens pooled): 2
adjudicated RPOA (type 1 or 2): % of tanezumab-treated patients [4, 8]: 1.3%
adjudicated RPOA (type 1 or 2): number of tanezumab-treated patients [4, 8]: 6
WOMAC Pain subscale Change from Baseline: LS Mean ([5]; 2.5 mg SC): −2.02
WOMAC Pain subscale Change from Baseline: LS Mean Difference vs. placebo ([5]; 2.5 mg SC): −0.67
PGA-OA: LS Mean (SE) change from Baseline ([5]; 2.5 mg SC): −0.82 (0.06)
PGA-OA: LS Mean Difference vs. placebo (SE) ([5]; 2.5 mg SC): −0.11 (0.07)
WOMAC Pain: LS Mean Difference vs. placebo (SE) ([5]; 2.5 mg SC): −0.46 (0.18)
WOMAC Physical Function: LS Mean (SE) change from Baseline ([5]; 2.5 mg SC): −2.70 (0.17)
WOMAC Physical Function: LS Mean Difference vs. placebo (SE) ([5]; 2.5 mg SC): −0.59 (0.18)
WOMAC Pain: LS Mean (SE) change from Baseline ([5]; 2.5 mg SC): −2.70 (0.17)
% of subjects with ≥50% reduction in the WOMAC Pain subscale ([5]; 2.5 mg SC): (45.4%)
Number of subjects with ≥50% reduction in the WOMAC Pain subscale ([5]; 2.5 mg SC): 128
WOMAC Pain: LS mean difference±SE versus placebo ([5]; 2.5 mg, index joint KL2/3): −0.19±0.23
WOMAC Pain: LS mean difference±SE versus placebo ([5]; 2.5 mg, index joint KL4): −0.84±0.28
WOMAC Pain subscale Change from Baseline: LS Mean ([5]; 5 mg SC): −1.69
WOMAC Pain subscale Change from Baseline: LS Mean Difference vs. placebo ([5]; 5 mg SC): −0.34
PGA-OA: LS Mean (SE) change from Baseline ([5]; 5 mg SC): −0.90 (0.06)
PGA-OA: LS Mean Difference vs. placebo (SE) ([5]; 5 mg SC): −0.19 (0.07)
WOMAC Pain: LS Mean Difference vs. placebo (SE) ([5]; 5 mg SC): −0.62 (0.18)
WOMAC Physical Function: LS Mean (SE) change from Baseline ([5]; 5 mg SC): −2.82 (0.17)
WOMAC Physical Function: LS Mean Difference vs. placebo (SE) ([5]; 5 mg SC): −0.71 (0.17)
WOMAC Pain: LS Mean (SE) change from Baseline ([5]; 5 mg SC): −2.85 (0.17)
% of subjects with ≥50% reduction in the WOMAC Pain subscale ([5]; 5 mg SC): (47.9%)
Number of subjects with ≥50% reduction in the WOMAC Pain subscale ([5]; 5 mg SC): 136
WOMAC Pain: LS mean difference±SE versus placebo ([5]; 5 mg, index joint KL2/3): −0.32±0.23
WOMAC Pain: LS mean difference±SE versus placebo ([5]; 5 mg, index joint KL4): −0.98±0.28
blocking of the activity of NGF (NGF [6]): blocks the activity of NGF effectively
binding to human NGF (NGF [7]): high affinity and specificity
